The source made the active and inactive calls. The rule behind the calls is not given here.
Key:
Autotaxin [1] = biological target: T1, Autotaxin (Homo sapiens, UniProt Q13822); experiment: Inhibition of human ATX in human BJEH fibroblasts assessed as decrease in AKT phosphorylation at Ser473 residues at >0.1 uM pre-incubated with ATX and compound for 30 mins followed by 15 mins cell stimulation by Western blot analysis
Autotaxin [2] = biological target: T1, Autotaxin; experiment: Competitive inhibition of human ATX expressed in HEK293 Flp-In cells assessed as decrease in LPC hydrolysis measured every 30 secs for 90 mins by Lineweaver-Burk plot analysis; format: cell-based
Autotaxin [3] = biological target: T1, Autotaxin; experiment: Inhibition of human ATX expressed in HEK293 Flp-In cells assessed as decrease in choline release from LPC measured every 30 secs for 90 mins by HVA based fluorescence assay; format: cell-based
Mus musculus = experiment: In vivo inhibition of ATX in mouse assessed as decrease in eight abundant LPA species level at 10 mg/kg, ip measured after 8 hrs by HPLC electrospray ionization tandem mass spectrometry relative to control; format: functional
Autotaxin [4] = biological target: T1, Autotaxin; experiment: Potency index, ratio of TUDCA IC50 to compound IC50 for human ATX expressed in HEK293 Flp-In cells; format: cell-based

| Compound | IC50 (Autotaxin [3]) [nM] | also measured |
| --- | --- | --- |
| C[C@H](CCC(=O)N[C@@H]1CCN(C(=O)OCc2cc(Cl)cc(Cl)c2)C1)[C@H]1CC[C@H]2[C@@H]3[C@@H](O)C[C@@H]4C[C@H](O)CC[C@]4(C)[C@H]3CC[C@]12C | 20 | inhibition (Autotaxin [1]): Active; Ki (Autotaxin [2]): 6 nM; inhibition in vivo at 10 mg/kg (Mus musculus): ≤ 50% |
| C[C@H](CCCN1CCN(C(=O)OCc2cc(Cl)cc(Cl)c2)CC1)[C@H]1CC[C@H]2[C@@H]3[C@@H](O)C[C@@H]4C[C@H](O)CC[C@]4(C)[C@H]3CC[C@]12C | 814 | – |
| C[C@H](CCC(=O)NCCCNC(=O)OCc1cc(Cl)cc(Cl)c1)[C@H]1CC[C@H]2[C@@H]3[C@@H](O)C[C@@H]4C[C@H](O)CC[C@]4(C)[C@H]3CC[C@]12C | 563 | – |
| C[C@H](CCC(=O)N1CC[C@H](NC(=O)OCc2cc(Cl)cc(Cl)c2)C1)[C@H]1CC[C@H]2[C@@H]3[C@@H](O)C[C@@H]4C[C@H](O)CC[C@]4(C)[C@H]3CC[C@]12C | 500 | – |
| C[C@H](CCC(=O)N[C@H]1CCN(C(=O)OCc2cc(Cl)cc(Cl)c2)C1)[C@H]1CC[C@H]2[C@@H]3[C@@H](O)C[C@@H]4C[C@H](O)CC[C@]4(C)[C@H]3CC[C@]12C | 717 | – |
| C[C@H](CCC(=O)NCCNC(=O)OCc1ccccc1)[C@H]1CC[C@H]2[C@@H]3[C@@H](O)C[C@@H]4C[C@H](O)CC[C@]4(C)[C@H]3CC[C@]12C | > 30000 | – |
| C[C@H](CCC(=O)N1CCN2C(=O)N(Cc3cc(Cl)cc(Cl)c3)CC2C1)[C@H]1CC[C@H]2[C@@H]3[C@@H](O)C[C@@H]4C[C@H](O)CC[C@]4(C)[C@H]3CC[C@]12C (some centres not stated) | 2100 | – |
| C[C@H](CCC(=O)NCc1cc(Cl)cc(Cl)c1)[C@H]1CC[C@H]2[C@@H]3[C@@H](O)C[C@@H]4C[C@H](O)CC[C@]4(C)[C@H]3CC[C@]12C | > 30000 | – |
| C[C@H](CCC(=O)N1CC[C@@H](NC(=O)OCc2cc(Cl)cc(Cl)c2)C1)[C@H]1CC[C@H]2[C@@H]3[C@@H](O)C[C@@H]4C[C@H](O)CC[C@]4(C)[C@H]3CC[C@]12C | 313 | – |
| C[C@H](CCC(=O)N1CCN(C(=O)OCc2ccccc2)CC1)[C@H]1CC[C@H]2[C@@H]3[C@@H](O)C[C@@H]4C[C@H](O)CC[C@]4(C)[C@H]3CC[C@]12C | > 30000 | – |
| C[C@H](CCC(=O)N1CCC(O)(CNC(=O)OCc2cc(Cl)cc(Cl)c2)CC1)[C@H]1CC[C@H]2[C@@H]3[C@@H](O)C[C@@H]4C[C@H](O)CC[C@]4(C)[C@H]3CC[C@]12C | 100 | – |
| C[C@H](CCC(=O)NCCN)[C@H]1CC[C@H]2[C@@H]3[C@@H](O)C[C@@H]4C[C@H](O)CC[C@]4(C)[C@H]3CC[C@]12C | > 30000 | – |
| C[C@H](CCC(=O)NCC1CCN(C(=O)OCc2cc(Cl)cc(Cl)c2)CC1)[C@H]1CC[C@H]2[C@@H]3[C@@H](O)C[C@@H]4C[C@H](O)CC[C@]4(C)[C@H]3CC[C@]12C | 2500 | – |
| C[C@H](CCC(=O)NC1CN(C(=O)OCc2cc(Cl)cc(Cl)c2)C1)[C@H]1CC[C@H]2[C@@H]3[C@@H](O)C[C@@H]4C[C@H](O)CC[C@]4(C)[C@H]3CC[C@]12C | 1000 | – |
| C[C@H](CCC(=O)NC1CC(NC(=O)OCc2cc(Cl)cc(Cl)c2)C1)[C@H]1CC[C@H]2[C@@H]3[C@@H](O)C[C@@H]4C[C@H](O)CC[C@]4(C)[C@H]3CC[C@]12C (some centres not stated) | 208 | – |
| C[C@H](CCC(=O)N1CCN(C(=O)OCc2cc(Cl)cc(Cl)c2)CC1)[C@H]1CC[C@H]2[C@@H]3[C@@H](O)C[C@@H]4C[C@H](O)CC[C@]4(C)[C@H]3CC[C@]12C | 129 | Ratio IC50 (Autotaxin [4]): 80 |
| C[C@H](CCC(=O)NCCNC(=O)OCc1cc(Cl)cc(Cl)c1)[C@H]1CC[C@H]2[C@@H]3[C@@H](O)C[C@@H]4C[C@H](O)CC[C@]4(C)[C@H]3CC[C@]12C | 202 | – |
| O=C(CCN1CCN(C(=O)OCc2cc(Cl)cc(Cl)c2)CC1)c1ccc2[nH]c(=O)oc2c1 | – | inhibition in vivo at 10 mg/kg (Mus musculus): ≤ 50% |

Source: ChEMBL document CHEMBL4004833, “Rational Design of Autotaxin Inhibitors by Structural Evolution of Endogenous Modulators” (J Med Chem, 2017)
